The results in this text go back to ChEMBL document CHEMBL5321254, “A method for tritiation of iboxamycin permits measurement of its ribosomal binding” (Bioorg Med Chem Lett, 2023).

The structures appear in SMILES notation.

Common to all, as to assay type: subcellular
Experiment [1] addresses Bacterial 70S ribosome. The experiment in a line: Binding affinity to Escherichia coli ribosomes assessed as apparent inhibition constant by scintillation counter analysis. The conditions noted are these: read-out: Ki(app).
Experiment [2] concerns the target Bacterial 70S ribosome. The experiment in a line: Binding affinity to Escherichia coli ribosomes assessed as apparent dissociation constant by scintillation counter analysis. The conditions noted are these: read-out: Kd(app).
In experiment [3] the target is Bacterial 70S ribosome (Bacteria) (UniProt P0A7V0+P60723+P0AG67+P0A7R5+P0A7R9+P0A7S3+P0A7S9+P0AG59+P0ADZ4+P0A7T3+P0AG63+P0A7T7+P0A7U3+P0A7U7+P68679+P0A7V3+P0A7V8+P0A7W1+P02358+P02359+P0A7W7+P0A7X3+P0A7J3+P0A7J7+P0AA10+P0ADY3+P02413+P0ADY7+P0AG44+P0C018+P0A7K6+P0A7L0+P0A7L3+P0AG48+P61175+P0ADZ0+P60624+P68919+P0A7L8+P0A7M2+P0A7M6+P60422+P0AG51+P0A7N1+P0A7M9+P0A7N4+P0A7N9+P0A7P5+P0A7Q1+Q2EEQ2+P0A7Q6+P60438+P62399+P0AG55+P0A7K2). The experiment in a line: Potency index, ratio of clindamycin Ki(app) to test compound Ki(app) for binding affinity to Escherichia coli ribosomes.

`CCC[C@@H]1C[C@@H](C(=O)N[C@@H]([C@H]2O[C@H](SC)[C@H](O)[C@@H](O)[C@H]2O)[C@H](C)Cl)N(C)C1` [CLINDAMYCIN]: the Ki at Bacterial 70S ribosome [1] worked out at 2700 nM.

In the case of `CS[C@H]1O[C@H]([C@H](NC(=O)[C@H]2NC[C@@H]3C[C@H](CC(C)C)CCO[C@H]32)[C@H](C)Cl)[C@H](O)[C@H](O)[C@H]1O`, the Kd on Bacterial 70S ribosome [2] was 34 nM. The Ki at Bacterial 70S ribosome [1] is 41 nM. The Ratio Ki(app) in experiment [3] was found to be 70.
